The results in this text go back to patent US10323000B2, “Indole derivatives and their use in neurodegenerative diseases” (priority 2014, dated 2019).

SMILES strings stand for the structures. Like-named read-outs stand apart in the source and are kept apart here.

One assay addresses human P2X7 receptor (Homo sapiens (Human), UniProt Q99572). The experiment in a line: Pore permeation assay (YO PRO dye uptake). It is filed as cell-based.
The target of assay [1] is P2X7 (IL-1β release from THP-1 cells) (Homo sapiens (Human), UniProt Q99572). The experiment in a line: IL-1β release assay. It is filed as cell-based. The gist of the method: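 THP-1 cells were differentiated with PMA 0.5 μM and primed 4 h with LPS 10 ng/ml. They were then pre-incubated 20 min with compound at 37° C and stimulated 30 min with BzATP 0.8 mM. Mature IL-1β released into the supernatant was quantified by sandwich ELISA.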
Chain of P2X7 (IL-1β release from THP-1 cells) (Q99572 whole entry): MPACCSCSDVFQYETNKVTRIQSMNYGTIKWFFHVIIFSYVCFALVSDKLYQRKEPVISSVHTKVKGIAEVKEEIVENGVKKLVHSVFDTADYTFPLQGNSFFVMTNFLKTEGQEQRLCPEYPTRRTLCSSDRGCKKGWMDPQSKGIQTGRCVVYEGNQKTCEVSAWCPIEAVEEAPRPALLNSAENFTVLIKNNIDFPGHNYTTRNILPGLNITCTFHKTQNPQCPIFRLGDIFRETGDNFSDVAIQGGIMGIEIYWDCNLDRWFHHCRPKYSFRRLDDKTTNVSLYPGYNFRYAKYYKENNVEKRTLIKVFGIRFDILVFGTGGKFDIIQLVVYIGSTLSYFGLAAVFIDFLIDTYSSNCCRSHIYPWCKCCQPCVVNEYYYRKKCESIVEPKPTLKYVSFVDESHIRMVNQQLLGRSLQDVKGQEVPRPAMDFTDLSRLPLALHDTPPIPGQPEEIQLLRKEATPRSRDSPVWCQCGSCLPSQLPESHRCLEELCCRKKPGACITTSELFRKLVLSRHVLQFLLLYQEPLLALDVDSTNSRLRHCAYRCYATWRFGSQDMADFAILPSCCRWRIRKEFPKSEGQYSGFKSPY

The mark [2] stands for this setting: HEK293 transfected with human P2X7, BzATP 10 uM, YO PRO dye uptake, read-out: hP2X7 IC50.
The mark [3] stands for this setting: THP-1 cells, LPS primed, 0.8 mM BzATP, mature IL-1β by sandwich ELISA, read-out: hTHP-1/IL-ib IC50.

Chain of human P2X7 receptor (Q99572 whole entry): as above

On to `O=C(NCC1CCC(F)(F)CC1)c1cn(CC(=O)N2CCCC2)c2cccc(Cl)c12` [Compound 185, 4-Chloro-1-(2-oxo-2-pyrrolidin-1-yl-ethyl)-1H-indole-3-carboxylic acid (4,4-difluoro-cyclohexylmethyl)-amide], for which the IC50 (at human P2X7 receptor; in assay [1]) was 10 to 100 nM throughout.

As to `O=C(NC[C@@]1(O)CCCC(F)(F)C1)c1cn(CCN2CCCC2=O)c2cccc(Cl)c12` [Compound 186, (R)-4-chloro-N-((3,3-difluoro-1-hydroxycyclohexyl)methyl)-1-(2-(2-oxopyrrolidin-1-yl)ethyl)-1H-indole-3-carboxamide], the IC50 (at human P2X7 receptor (setting [2]); in assay [1] (setting [3])) was over 1000 nM in each case.

For `O=C(NC[C@]1(O)CCCC(F)(F)C1)c1cn(CCN2CCCC2=O)c2cccc(Cl)c12` [Compound 187, (S)-4-chloro-N-((3,3-difluoro-1-hydroxycyclohexyl)methyl)-1-(2-(2-oxopyrrolidin-1-yl)ethyl)-1H-indole-3-carboxamide], the IC50 against human P2X7 receptor lay within 10 to 100 nM; in assay [1], 101 to 500 nM.

In the case of `O=C(NCC1(O)CCCC(F)(F)C1)c1cn(CCN2CCCC2=O)c2cccc(Cl)c12` (stereo not drawn) [Compound 188, 4-chloro-N-((3,3-difluoro-1-hydroxycyclohexyl)methyl)-1-(2-(2-oxopyrrolidin-1-yl)ethyl)-1H-indole-3-carboxamide], the IC50 (against human P2X7 receptor; in assay [1]) was 10 to 100 nM throughout.

Take `O=C(NCC1CCC(F)(F)CC1)c1cn(CCN2CCCC2=O)c2cccc(Cl)c12` [Compound 189, 4-chloro-N-((4,4-difluorocyclohexyl)methyl)-1-(2-(2-oxopyrrolidin-1-yl)ethyl)-1H-indole-3-carboxamide]: the IC50 is 10 to 100 nM on human P2X7 receptor and 101 to 500 nM in assay [1].

As to `O=C(NCC1CCC(F)(F)CC1)c1cn(CC(=O)N2CCOCC2)c2cccc(Cl)c12` [Compound 190, 4-Chloro-1-(2-morpholin-4-yl-2-oxo-ethyl)-1H-indole-3-carboxylic acid (4,4-difluoro-cyclohexylmethyl)-amide], the IC50 (on human P2X7 receptor (setting [2]); in assay [1] (setting [3])) was 101 to 500 nM throughout.

As to `CC(C)N1CC[C@H]1Cn1cc(C(=O)NCC2CCC(F)(F)CC2)c2c(Cl)cccc21` [Compound 191, (S)-4-chloro-N-((4,4-difluorocyclohexyl)methyl)-1-((1-isopropylazetidin-2-yl)methyl)-1H-indole-3-carboxamide], the results for the IC50 (at human P2X7 receptor; in assay [1] (setting [3])) were 101 to 500 nM and over 1000 nM, respectively.

Consider `O=C(NCC1CCC(F)(F)CC1)c1cn(CCN2CCCCC2)c2cccc(Cl)c12` [Compound 193, 4-chloro-N-((4,4-difluorocyclohexyl)methyl)-1-(2-(piperidin-1-yl)ethyl)-1H-indole-3-carboxamide], for which the IC50 (on human P2X7 receptor; in assay [1]) was 10 to 100 nM in each case.

As for `O=C(NCC1CCC(F)(F)CC1)c1cn(CC(=O)N2CCCCC2)c2cccc(Cl)c12` [Compound 195, 4-Chloro-1-(2-oxo-2-piperidin-1-yl-ethyl)-1H-indole-3-carboxylic acid (4,4-difluoro-cyclohexylmethyl)-amide], the results for the IC50 (at human P2X7 receptor; in assay [1]) were 10 to 100 nM and 101 to 500 nM, respectively.

Regarding `CC(C)N1CCCC1Cn1cc(C(=O)NCC2CCC(F)(F)CC2)c2c(Cl)cccc21` (stereo not drawn) [Compound 196, 4-chloro-N-((4,4-difluorocyclohexyl)methyl)-1-((1-isopropylpyrrolidin-2-yl)methyl)-1H-indole-3-carboxamide], the IC50 was 10 to 100 nM on human P2X7 receptor and 101 to 500 nM in assay [1].

Regarding `O=C(NCC1CCC(F)(F)CC1)c1cn(CC2CCCN2C2CC2)c2cccc(Cl)c12` (stereo not drawn) [Compound 197, 4-chloro-1-((1-cyclopropylpyrrolidin-2-yl)methyl)-N-((4,4-difluorocyclohexyl)methyl)-1H-indole-3-carboxamide], the IC50 (against human P2X7 receptor; in assay [1]) was 10 to 100 nM throughout.

As for `O=C(NCC1CCC(F)(F)CC1)c1cn(CCO)c2cccc(C(F)(F)F)c12` [Compound 198, N-((4,4-difluorocyclohexyl)methyl)-1-(2-hydroxyethyl)-4-(trifluoromethyl)-1H-indole-3-carboxamide], the figures for the IC50 (against human P2X7 receptor; in assay [1]) were 101 to 500 nM and 10 to 100 nM, respectively.

Take `COCCn1cc(C(=O)NCC2CCC(F)(F)CC2)c2c(C(F)(F)F)cccc21` [Compound 199]: the IC50 (against human P2X7 receptor; in assay [1]) was 101 to 500 nM throughout.

With `CC(C(=O)N(C)C)n1cc(C(=O)NCC2CCC(F)(F)CC2)c2c(Cl)cccc21` (stereo not drawn) [Compound 200, 4-chloro-N-((4,4-difluorocyclohexyl)methyl)-1-(1-(dimethylamino)-1-oxopropan-2-yl)-1H-indole-3-carboxamide], the IC50 was under 10 nM on human P2X7 receptor (setting [2]) and 10 to 100 nM in assay [1].

In the case of `CC(C)N(C)C(=O)Cn1cc(C(=O)NCC2CCC(F)(F)CC2)c2c(Cl)cccc21` [Compound 203, 4-Chloro-1-[(isopropyl-methyl-carbamoyl)-methyl]-1H-indole-3-carboxylic acid (4,4-difluoro-cyclohexylmethyl)-amide], the results for the IC50 (at human P2X7 receptor; in assay [1]) were 10 to 100 nM and 101 to 500 nM, respectively.

For `CN(C)C(=O)Cn1cc(C(=O)NCC2(O)CCC(F)(F)CC2)c2c(Cl)cccc21` [Compound 205, 4-Chloro-1-dimethylcarbamoylmethyl-1H-indole-3-carboxylic acid (4,4-difluoro-1-hydroxy-cyclohexylmethyl)-amide], the IC50 on human P2X7 receptor (setting [2]) was under 10 nM; in assay [1], 10 to 100 nM.

As to `CCN(CC)C(=O)Cn1cc(C(=O)NCC2CCC(F)(F)CC2)c2c(Cl)cccc21` [Compound 207, 4-Chloro-1-diethylcarbamoylmethyl-1H-indole-3-carboxylic acid (4,4-difluoro-cyclohexylmethyl)-amide], the IC50 against human P2X7 receptor was in the range of 10 to 100 nM; in assay [1], 101 to 500 nM.

Turning to `CN(C)C(=O)Cn1cc(C(=O)NCC2CCC(F)(F)CC2)c2c(Cl)cccc21` [Compound 208, 4-Chloro-1-dimethylcarbamoylmethyl-1H-indole-3-carboxylic acid (4,4-difluoro-cyclohexylmethyl)-amide], the IC50 is under 10 nM on human P2X7 receptor (setting [2]) and 10 to 100 nM in assay [1].
